Test system: Salinispora tropica NPS021184
Assay: Production of Salinosporamide A and analogs in shake flask or tube culture; titers by HPLC of EtOAc extract
Conditions: for % Increase (+) or % decrease (−) of maximum titer: Ex.1 Table 1; for % Increase (+) or % decrease (−) of max titer: Ex.1 Table 2; for % increase/decrease of titer: Ex.2 Table 3; for % Increase (+) or % decrease (−) of average max titer: Ex.2 Table 4
Method: Seed cultures were prepared by inoculating frozen stock of Salinispora tropica NPS021184 into seed medium.
The first seed cultures (either 10 mL medium in a 50-mL tube or 100 mL medium in a 500-mL Erlenmeyer flask) were incubated for 3 to 4 days before inoculating into the second seed media with the same composition as the first seed cultures. The second seed cultures (100 mL medium in a 500-mL Erlenmeyer flask) were incubated for two days before inoculating into the production medium (100 mL medium in a 500-mL Erlenmeyer flask).
The chemically defined salt formulation included: […]
3.5 mL of the fermentation culture was mixed with equal volume of EtOAc in an extraction tube to extract the various metabolites from the production culture. The mixture was shaken on a shaker for one hr. An aliquot of the extract (1 mL) was removed and dried under a stream of nitrogen. The dried extract was stored at −20° C. freezer before HPLC analysis. The dried extract was resuspended in 320 μL DMSO and injected into HPLC using the 00TF14 method for analysis.
The production of Salinosporamide A, NPI-0047 and NPI-2065 was monitored by Agilent HP1100 HPLC using an ACE C-18 reversed-phase column (4.6×150 mm), and solvent system consisting of water (0.01% TFA) as solvent A and acetonitrile (0.01% TFA) as solvent B. The elution was started at 100% solvent A for 1 min, 100% solvent A to 35% solvent A gradient in 7 min, held at 35% solvent A for 11 min, 35% solvent A to 100% solvent B in 8 min and held at 100% solvent B for 9 min at a flow rate of 1.5 mL/min with the detector wavelength set at 210 nm and column temperature 35° C.
The first seed cultures (either 10 mL medium in a 50-mL tube or 100 ml medium in a 500-ml Erlenmeyer flask) were incubated for 3 to 4 days before inoculating into the second seed media with the same composition as the first seed cultures. The second seed cultures (100 mL medium in a 500-mL Erlenmeyer flask) were incubated for two days before inoculating into the production medium (100 mL medium in a 500-mL Erlenmeyer flask).
The first seed cultures (either 10 mL medium in a 50-ml tube or 100 mL medium in a 500-mL Erlenmeyer flask) were incubated for 3 to 4 days before inoculating into the second seed media with the same composition as the first seed cultures. The second seed cultures (100 mL medium in a 500-mL Erlenmeyer flask) were incubated for two days before inoculating into production medium (100 mL medium in a 500-mL Erlenmeyer flask).
3.5 mL of the fermentation culture was mixed with equal volume of EtOAc in an extraction tube to extract the various metabolites from the production culture. The mixture was shaken for 1 hr. An aliquot of the extract (1 mL) was removed and dried under a stream of nitrogen. The dried extract was stored at −20° C. freezer before HPLC analysis. The dried extract was resuspended in […] DMSO and injected into HPLC using the TFS7 method for analysis.
The production of Salinosporamide A, NPI-0047 and NPI-2065 was monitored by Agilent HP1100 HPLC using an ACE C-18 reversed-phase column (4.6×150 mm), and isocratic solvent system consisting of 67% water (0.01% TFA) and 33% acetonitrile (0.01% TFA). The flow rate was 1.5 mL/min for 15 min with the detector wavelength set at 210 nm and column temperature 35° C.
3.5 mL of the fermentation culture was mixed with equal volume of EtOAc in an extraction tube to extract the various metabolites from the production culture. The mixture was shaken on the shaker for 1 hr. An aliquot of the extract (1 mL) was removed and dried under a stream of nitrogen. The dried extract was stored at −20° C. freezer before HPLC analysis. The dried extract was resuspended in 320 μL DMSO and injected into HPLC using the TFS7 method for analysis. […]

Compound: C[C@@]12OC(=O)[C@]1([C@@H](O)[C@@H]1C=CCCC1)NC(=O)[C@@H]2CCCl [Salinosporamide A]
- % Increase (+) or % decrease (−) of maximum titer (104 μg/L CoCl2·6H2O in production medium vs no addition): 1.5%
- % Increase (+) or % decrease (−) of maximum titer (1.04 mg/L CoCl2·6H2O in production medium vs no addition): 2.2%
- % Increase (+) or % decrease (−) of maximum titer (10.4 mg/L CoCl2·6H2O in production medium vs no addition): −1.4%
- % Increase (+) or % decrease (−) of max titer (2.6 μg/L CoCl2·6H2O in production medium vs control): +1.1%
- % Increase (+) or % decrease (−) of max titer (5.2 μg/L CoCl2·6H2O in production medium vs control): −8.9%
- % Increase (+) or % decrease (−) of max titer (6.5 μg/L CoCl2·6H2O in production medium vs control): +1.2%
- % Increase (+) or % decrease (−) of max titer (13 μg/L CoCl2·6H2O in production medium vs control): −0.3%
- % Increase (+) or % decrease (−) of max titer (26 μg/L CoCl2·6H2O in production medium vs control): −4.0%
- % Increase (+) or % decrease (−) of max titer (52 μg/L CoCl2·6H2O in production medium vs control): −4.5%
- % Increase (+) or % decrease (−) of max titer (104 μg/L CoCl2·6H2O in production medium vs control): −3.0%
- % Increase (+) or % decrease (−) of max titer (208 μg/L CoCl2·6H2O in production medium vs control): +0.2%
- % Increase (+) or % decrease (−) of max titer (416 μg/L CoCl2·6H2O in production medium vs control): −8.5%
- maximum production as % of the high sodium medium (Ex.11, low sodium medium (9.3 mM sodium, SHY.KCD) vs high sodium medium (413 mM sodium, SHY.B4C)): about 75%
- % increase/decrease of titer (seed CoCl2·6H2O 0 μg/L (reference)): 0.0%
- % increase/decrease of titer (seed CoCl2·6H2O 2.6 μg/L vs 0 μg/L): 1.7%
- % increase/decrease of titer (seed CoCl2·6H2O 5.2 μg/L vs 0 μg/L): 4.7%
- % increase/decrease of titer (seed CoCl2·6H2O 13 μg/L vs 0 μg/L): 2.5%
- % increase/decrease of titer (seed CoCl2·6H2O 26 μg/L vs 0 μg/L): 20.3%
- % increase/decrease of titer (seed CoCl2·6H2O 52 μg/L vs 0 μg/L): 10.7%
- % increase/decrease of titer (seed CoCl2·6H2O 104 μg/L vs 0 μg/L): 15.9%
- % increase/decrease of titer (seed CoCl2·6H2O 208 μg/L vs 0 μg/L): 20.8%
- % increase/decrease of titer (seed CoCl2·6H2O 416 μg/L vs 0 μg/L): 9.2%
- % Increase (+) or % decrease (−) of average max titer (CoCl2·6H2O seed 0 / production 52 μg/L vs no cobalt): +10.1%
- % Increase (+) or % decrease (−) of average max titer (CoCl2·6H2O seed 208 μg/L / production 52 μg/L vs no cobalt): 33.9%
- % Increase (+) or % decrease (−) of average max titer (CoCl2·6H2O seed 208 μg/L / production 52 μg/L vs no cobalt, listed as SALINOSPORAMIDE A): +33.9%
- concentration as % of the saline fermentation condition (Ex.23, low chloride medium (LoCl.PD) vs saline medium): about 35%
- increase of production (Ex.2, cobalt in seed and production media vs cobalt in production medium only): 21.6%

— patent US10011814B2, “Salt formulations for the fermentation of marine microorganisms” (Triphase Research and Development I Corp., priority 2006, dated 2018)
